In US20210187013A1, “Methods of Treating and Preventing Cancer by Disrupting the Binding of Copper in the Map Kinase Pathway” (DUKE UNIVERSITY, priority 2012, published 2021):

Experiments:
[1] = tested on: Erk1/2 phosphorylation in Drosophila S2 cells; assay: Insulin-stimulated Erk1/2 phosphorylation in S2 cells after preincubation with chelator or silver (immunoblot); assay type: cell-based; settings: then human insulin 25 μg/mL
Description: The copper transporter Ctr1 was identified as one of approximately 300 genes that when knocked down in S2 insect cells reduced phosphorylation of Erk (see, e.g., Friedman, A. and Perrimon, N. (2006) Nature 444:230-234). To explore whether both Ctr11 and the associated Cu^+ transport function are important for Ras signaling to Erk1/2, Cu^+-specific chelation was used to impose copper deficiency on cultured fly S2 cells, S2 cells used for the no-treatment and insulin-only treatment conditions were left in basal medium (Schneider's medium with 10% fetal bovine serum) during the preincubation. S2 cells used for the other treatment conditions were preincubated for 1 hour with chelator or silver as follows: 10 μM tetrathiomolybdate (TTM) and 250 μM bathocupronine disulfonate (BCS) for copper chelation experiments, 10 μM ferrozine, and 250 μM bathophenanthroline disulfonate (BPS) for iron chelation, and 10 μM silver nitrate. Cells were stimulated with human insulin at a concentration of 25 μg/mL of medium. […] (FIG. 3A). […] (FIG. 3B). […] (FIG. 3C).

[2] = biological target: T1, recombinant GST-tagged human Mek1 (Homo sapiens, UniProt Q02750); assay: Mek1 in vitro kinase assay (phosphorylation of kinase-dead Erk2); assay type: biochemical
T1 construct: made in house; host or cells: E. coli BL21(DE3)
T1 sequence (Q02750 whole entry): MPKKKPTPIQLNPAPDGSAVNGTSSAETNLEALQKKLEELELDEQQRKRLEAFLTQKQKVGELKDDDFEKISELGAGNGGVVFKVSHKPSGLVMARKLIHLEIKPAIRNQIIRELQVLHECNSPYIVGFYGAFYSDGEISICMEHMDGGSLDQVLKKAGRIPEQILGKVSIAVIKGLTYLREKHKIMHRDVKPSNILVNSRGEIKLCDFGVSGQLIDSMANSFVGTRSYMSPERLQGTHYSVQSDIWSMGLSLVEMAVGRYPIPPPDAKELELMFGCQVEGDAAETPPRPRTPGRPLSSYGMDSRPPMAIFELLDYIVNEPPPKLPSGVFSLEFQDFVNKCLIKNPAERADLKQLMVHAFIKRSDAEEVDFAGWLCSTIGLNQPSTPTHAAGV
Description: Mek1 requires copper for kinase activity in vitro (FIG. 8 and Turski, M. L. et al. (2012), supra). To determine the role copper plays in the stimulation of Mek1-dependent phosphorylation of Erk1/2, a series of in vitro experiments were carried out. For these experiments, purified human Mek1 protein was incubated with a kinase-dead isoform of hErk2 so that assessment of Erk2 phosphorylation mediated by Mek1 could be made in the absence of Erk2 autophosphorylation. Seger, R. et. al. (1991) Proc. Natl. Acad. Sci. U.S.A. 88:6142-6146.
Human Erk2 and human Mek1 were obtained from Addgene and cloned into pGEX4T3 and pGEX6P1 from GE Life Sciences, respectively. Recombinant GST-human Erk2 (hErk2) and GST-human Mek1 (hMek1) were purified from BL21(DE3) bacteria as previously described. […] The concentration was determined using the Bio-Rad DC protein assay (Bio-Rad, Hercules, United States).
(§1) Modified version of Mek1 and Erk2 in vitro kinase assay were performed as described previously. […] Reactions were quenched with 5× Laemmli buffer, and a third of the reaction mixture was analyzed by SDS-PAGE via subsequent Western blotting with phosphospecific antibodies. […] Reactions were quenched with 5× Laemmli buffer, and a third of the reaction mixture was analyzed by SDS-PAGE via Western blotting with phosphospecific antibodies.

recombinant Mek1 = biological target: T2, recombinant Mek1 (Rattus norvegicus, UniProt Q01986); assay: Equilibrium dialysis copper binding stoichiometry of recombinant Mek1
T2 construct: GST (N, cleaved yes); made in house; host or cells: E. coli BL21-CodonPlus (DE3)-RIPL
T2 sequence (Q01986 whole entry): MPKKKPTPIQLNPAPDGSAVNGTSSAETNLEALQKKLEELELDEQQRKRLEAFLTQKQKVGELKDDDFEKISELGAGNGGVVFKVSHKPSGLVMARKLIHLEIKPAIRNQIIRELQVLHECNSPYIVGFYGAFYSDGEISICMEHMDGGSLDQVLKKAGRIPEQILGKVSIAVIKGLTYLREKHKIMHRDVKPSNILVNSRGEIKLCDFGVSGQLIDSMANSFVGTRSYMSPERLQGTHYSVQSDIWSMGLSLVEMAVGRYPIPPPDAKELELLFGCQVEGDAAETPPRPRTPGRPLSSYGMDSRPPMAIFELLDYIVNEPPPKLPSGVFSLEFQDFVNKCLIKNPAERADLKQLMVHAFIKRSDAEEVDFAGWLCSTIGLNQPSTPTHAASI
Description: To investigate the nature of copper binding to Mek1, purified recombinant Mek1 was used for in vitro copper binding stoichiometry and binding affinity experiments. In vitro copper-binding experiments were carried out using the rat Mek1 coding sequence, which was PCR amplified using the pCMV-HAMek1 construct and cloned into the pGex6P-1 vector (GE Healthcare Life Sciences, Waukesha, United States). The resulting plasmid, pGex69-1Mek1, was transformed into BL21-CodonPlus (DE3)-RIPL cells from Stratagene. Recombinant, glutathione S-transferase (GST)-tagged Mek1 was purified by affinity chromatography using GSH agarose beads, followed by on-column Pre Scission protease cleavage of the GST tag. Further purification was achieved using MonoQ anion-exchange chromatography that served to remove the majority of the contaminating proteins, including cleaved GST tags that were not retained on the GSH column. […] Protein concentrations were determined by quantitative amino acid analysis with a Beckman 6300 analyzer (Beckman Coulter, Brea, United States) after hydrolysis in 5.7 N HCl at 110° C. in vacuo. Equilibrium dialysis experiments were conducted as described in Horng, Y. C. et al. (2006) J. Biol. Chem. 280:34113-34122. Recombinant Mek1 (2.5 to 10 μM in 20 mM Tris [pH 7.2]) was dialyzed, using a dialysis tube with 10-kDa molecular mass cutoff, against CuCl2 concentrations ranging from 0.25 to 15 μM in 20 mM Tris (pH 7.2)-100 mM NaCl overnight at 4° C. with slow stirring. Copper levels associated with Mek1 and the dialysate were quantified by inductively coupled plasma mass spectroscopy after digestion with 50% HNO3 at 65° C. In specific experiments, Cu^2+ was introduced as a Cu^2+-histidine complex (His complex) to preclude Cu^2+ hydrolysis and precipitation.
However, the inclusion of 0.1 mM EDTA reduced the Cu content to ˜1.5 molar equivalents. Dialysis of Mek1 against 2 μM Cu^2+-4 μM His complex, followed by a subsequent dialysis step in 0.1 mM EDTA, reduced the copper content to approximately 2 molar equivalents. Inclusion of […] when only Cu^2+ was present. […] In a separate series of equilibrium dialysis experiments in which the Cu^2+ content was varied from […] to 0.15 μM, the maximal copper content associated with Mek1 plateaued near ˜2.5 molar equivalent (FIG. 7B). […] Under these same conditions, Cu^2+ binding is observed with albumin, a known Cu^2+-binding protein, but not lysozyme or thyroglobulin.

recombinant GST-hErk2 = biological target: T3, recombinant GST-hErk2 (Homo sapiens, UniProt P28482); assay: Erk2 in vitro kinase assay (phosphorylation of MBP); assay type: biochemical; settings: increasing amounts of CuSO4; wild-type Erk2
T3 construct: made in house; host or cells: E. coli BL21(DE3)
T3 sequence (P28482 whole entry): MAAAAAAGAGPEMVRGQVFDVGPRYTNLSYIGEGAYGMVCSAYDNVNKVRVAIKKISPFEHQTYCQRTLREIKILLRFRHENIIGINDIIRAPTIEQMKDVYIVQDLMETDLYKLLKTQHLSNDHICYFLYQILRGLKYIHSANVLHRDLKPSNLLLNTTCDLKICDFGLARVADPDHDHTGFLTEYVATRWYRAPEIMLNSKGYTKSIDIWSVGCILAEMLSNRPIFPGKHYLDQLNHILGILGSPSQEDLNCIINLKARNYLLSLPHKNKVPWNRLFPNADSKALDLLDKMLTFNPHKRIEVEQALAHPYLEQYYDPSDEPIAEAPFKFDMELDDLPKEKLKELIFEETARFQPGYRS
Description: Human Erk2 and human Mek1 were obtained from Addgene and cloned into pGEX4T3 and pGEX6P1 from GE Life Sciences, respectively. Recombinant GST-human Erk2 (hErk2) and GST-human Mek1 (hMek1) were purified from BL21(DE3) bacteria as previously described. (see Heise, C. J. (2006) Methods 40:209-212; Levin-Salomon, V. et al. (2008) J. Biol. Chem. 283:34500-34510). Specifically, 500 mL of LB was inoculated with BL21(DE3) bacteria transformed with pGEX4T3-hErk2 or pGEX6P1-hMek1 and allowed to grow to an optical density of 0.6 at 600 nm (OD600). GST-hErk2 was induced by IPTG (0.4 mM) at 37° C. for 4 hours, while GST-hMek1 was induced by IPTG (1 mM) for 14 hour at 25° C. before collection by ultracentrifugation. […] and GST-hMek1 pellets were resuspended in 50 mL of 1×PBS-1% Triton X-100 plus a protease inhibitor tablet and sonicated for bacterial lysis. […] The concentration was determined using the Bio-Rad DC protein assay (Bio-Rad, Hercules, United States).
as §1

[3] = Cu2+ affinity of ligands used in the PAR competition study; assay type: physicochemical; settings: 1:1 complex
Description: To obtain a precise binding affinity, a series of ligand competition studies using PAR were conducted. PAR is a chromogenic chelator forming colored complexes with metal ions. Cu^2+ binding affinity for Mek1 was estimated using competition experiments similar to those described in Zimmermann, M. et. al. (2009) Biochemistry 48:11640-11654, with the divalent metal ligand PAR [4-(2-pyridylazo)resorcinol]. The quantitative release of the 1:1 Cu^2+-/PAR complex on titration of apo-Mek1 was monitored spectrophotometrically at 500 nm (DU 600 spectrophotometer, Beckman Coulter, Brea, United States) in 20 mM Tris (pH 7.2)-100 mM NaCl.
Bidentate PAR forms a 1:1 complex with Cu^2+.
Control titrations under the same pH and ionic strength buffer conditions were performed with EDTA and bovine serum albumin (BSA) to validate the Cu^2+-PAR titration study. Both EDTA and BSA are spectrally silent, with known dissociation constants. EDTA also served to calibrate Cu^2+-PAR affinity relative to the reaction condition used for the experiments.

[4] = tested on: BRaf^V600E-transformed MEFs; assay: Tumor growth in mice injected with BRaf^V600E-transformed MEFs; assay type: in vivo; settings: 2 mg/day oral TM
Description: FIGS. 12A-12C are graphs showing that copper is required for BRaf^V600E-driven tumorigenesis.
Copper is provided primarily through diet. […] Similar copper-reducing strategies may even hold promise as a way to preemptively reduce the incidence of melanoma in high-risk populations. In this regards, there are well-established approaches to regulate the level of copper in humans. Specifically, Wilson's Disease is characterized by a mutation in the copper-transporting gene ATP7B that results in elevated levels of copper in the body (see, e.g., Das, S. K. and Ray, K. (2006) Nat. Clin. Pract. Neurol. 2:482-493). This disease is treated by first lowering copper levels with copper chelators D-penicillamine, trientine or investigative drugs such as ammonium tetrathiomolybdate (TM). Copper levels are then maintained by a copper-restricted diet (e.g., avoidance of copper-rich foods such as shellfish, nuts, chocolate, liver and cooking in copperware) and either zinc acetate, to block copper absorption, or low dose copper chelators (see, e.g., Das, S. K. and Ray, K. (2006), supra). To evaluate if reducing dietary copper could negatively impact melanoma, mice injected with BRaf^V600E-transformed MEFs were either untreated as a control or treated with oral TM to chelate dietary copper.

[5] = tested on: Erk1/2 phosphorylation in mouse embryonic fibroblasts (MEFs); assay: Insulin-stimulated Erk1/2 phosphorylation in Ctr1+/+ and Ctr1−/− MEFs; assay type: cell-based
Description: Ctr1^+/+ and Ctr1^−/− mouse embryonic fibroblasts (MEFs) and insulin or fibroblast growth factor (FGF) stimulation experiments. To determine whether copper plays a role in the activation of Erk1/2, which is phosphorylated by Mek1, Ctr1^+/+ and Ctr1^−/− mouse embryonic fibroblasts (MEFs) were evaluated for insulin-stimulated ERK1/2 phosphorylation. Isolation and culture of Ctr1^+/+ and Ctr1^−/− cells were done as described in Lee, J. et al. (2002) J. Biol. Chem. 30:322-329. Insulin or fibroblast growth factor (FGF) stimulation experiments were done with plates measuring […], with one plate per time point. Cells were allowed to reach ˜95% confluence and then serum starved for 16 to 48 hours. Recombinant human insulin (Invitrogen, Carlsbad, United States) was added at a final concentration of 200 nM, and recombinant human basic FGF (Invitrogen, Carlsbad, United States) was added at a final concentration of 10 ng/ml, with the exception of the time zero plate. […]

[6] = S2 cells preincubated 1 hour with 10 μM agent
[7] = S2 cells preincubated 1 hour with 250 μM agent

In the case of `O=[N+]([O-])[O-].[Ag+]` [Ag, silver nitrate], the “insulin-stimulated Erk1/2 phosphorylation” value [1, 6] is reported as “clearly diminished the levels of insulin-stimulated Erk1/2 phosphorylation”.
For `Cc1cc(-c2ccc(S(=O)(=O)O)cc2)c2ccc3c(-c4ccc(S(=O)(=O)O)cc4)cc(C)nc3c2n1` [BCS, bathocupronine disulfonate], the “insulin-stimulated Erk1/2 phosphorylation” value [1, 7] was “reduced the levels of insulin-stimulated Erk1/2 phosphorylation”.
For `O=S(=O)([O-])[O-].[Cu+2]` [CuSO4], the “Mek1 kinase activity, times greater” value ([2]; 2.5 μM CuSO4, 22° C., 30 minutes) was roughly 20 times.
For `[Cl][Cu][Cl]` [Cu^2+, CuCl2], the “bound copper content of Mek1” value (recombinant Mek1; dialysis against 2 μM Cu2+-4 μM His complex, then dialysis in 0.1 mM EDTA) was “approximately 2 molar equivalents”, the “bound copper content of Mek1” value (recombinant Mek1; dialysis against 2 μM Cu2+, as-isolated ratio ~0.5) was roughly 2.5 molar equivalents and the “bound copper content of Mek1” value (recombinant Mek1; dialysis with inclusion of 0.1 mM EDTA) was roughly 1.5 molar equivalents. The “bound copper content of Mek1” value (recombinant Mek1; only Cu2+ present (comparison with Zn(II) and Fe(II) inclusion)) was 2.6, the “maximal copper content associated with Mek1 (plateau)” value (recombinant Mek1; separate dialysis series, Cu2+ content varied from 0.11 to 0.15 μM) was roughly 2.5 molar equivalent and the “Erk2 phosphorylation of MBP” value (recombinant GST-hErk2) was “no effect”.
With `Oc1ccc(N=Nc2ccccn2)c(O)c1` [PAR, 4-(2-pyridylazo)resorcinol] the “affinity of Cu2+-PAR complex (formation constant β)” value [3] was 3.2×10^17.
With `[NH4+].[NH4+].[SH-].[SH-].[S]=[Mo]=[S]` [TM, ammonium tetrathiomolybdate] the “tumor size versus control tumors at termination of the experiment” value [4] was “nearly five times smaller than the control tumors”.
With `[SH-].[SH-].[S]=[Mo]=[S]` [TTM, tetrathiomolybdate, reference compound] the “insulin-stimulated Erk1/2 phosphorylation” value [1, 6] was “reduced the levels of insulin-stimulated Erk1/2 phosphorylation” and the “Mek1 kinase activity in the presence of 2.5 μM CuSO4” value ([2]; 50 μM TTM in the presence of CuSO4) was “blunted”.
For `[Cu]` [copper], the “insulin-stimulated Erk1/2 phosphorylation” value ([5]; Ctr1+/+ cells, copper added) was “No additional stimulation was observed” and the “insulin-stimulated Erk1/2 phosphorylation” value ([5]; Ctr1−/− MEFs preincubated with 25 μM copper for 1 hour prior to insulin stimulation) was “increased insulin-stimulated Erk1/2 phosphorylation, though not to the same levels as Ctr1^+/+ MEFs”.
In the case of `O=S(=O)([O-])c1ccc(-c2nnc(-c3ccccn3)nc2-c2ccc(S(=O)(=O)[O-])cc2)cc1.[Na+].[Na+]` [ferrozine], the “insulin-stimulated Erk1/2 phosphorylation” value [1, 6] is reported as “did not reduce insulin-stimulated Erk1/2 phosphorylation”.
In the case of bathophenanthroline disulfonate [BPS], the “insulin-stimulated Erk1/2 phosphorylation” value [1, 7] is reported as “did not reduce insulin-stimulated Erk1/2 phosphorylation”.
